One data set addresses T1, Recombinant human Arg2 (Homo sapiens, UniProt P78540).
T1 construct: Recombinant human arginase 2 (Arg2) comprising amino acids 23–254 was purchased from US Biological; purchased US Biological (Salem, MA)
T1 sequence (P78540 23-354): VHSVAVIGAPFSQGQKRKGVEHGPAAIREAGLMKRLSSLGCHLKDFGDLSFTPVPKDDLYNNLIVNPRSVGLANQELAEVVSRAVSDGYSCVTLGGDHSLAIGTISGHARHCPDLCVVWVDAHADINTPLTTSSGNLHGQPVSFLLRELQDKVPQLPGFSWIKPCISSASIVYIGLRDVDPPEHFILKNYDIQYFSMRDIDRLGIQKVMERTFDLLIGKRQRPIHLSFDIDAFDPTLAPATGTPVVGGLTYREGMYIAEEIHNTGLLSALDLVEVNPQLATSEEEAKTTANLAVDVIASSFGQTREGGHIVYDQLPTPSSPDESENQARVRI
Description: Recombinant arginase activity assay (Arg2). Particulars: 20 mM L-arginine; N = 2; mean (±SD). It counts as biochemical.

Data set [1] concerns intracellular arginase in HepG2 cell line. Description: Native arginase activity in intact HepG2 cells. It counts as cell-based, human. Conditions: 10 mM L-arginine; urea in media after 24 h; N = 3; mean (±SD).
Description: (§1) Intracellular arginase activity was determined for the arginase-expressing HepG2 and K-562 cell lines as follows. […] The medium was harvested after 24 h and urea generated was determined with the QuantiChrom Urea Assay Kit. Wells containing media without cells were used as background controls.
Data set [2] concerns intracellular arginase in K562 cell line. Description: Native arginase activity in intact K-562 cells. Particulars: 10 mM L-arginine; urea in media after 24 h; N = 2; mean (±SD). The class given is cell-based, human.
Description: as §1
Data set [3] deals with human granulocytes co-cultured with autologous T cells. Description: T cell/granulocyte co-culture assay (healthy donor). It counts as cell-based. Particulars: for IC50: Homo sapiens, T-cell, granulocytes to T cells 0.25 to 1. The protocol: T cells or NK cells were purified from healthy donor human blood or from murine splenocytes using a negative selection kit for the appropriate cell type and species from Stemcell Technologies. Isolated T cells or NK cells were loaded with carboxyfluorescein succinimidyl ester (CFSE, Thermo Fisher) and stimulated for 72–96 h in complete growth medium containing a minimum of either 50 μM L-arginine (NK cells) or 100 μM L-arginine (T cells). For T cell stimulation, a solution of 10 μg/mL anti-CD3 (human clones UCHT1 or OKT3; murine clone 145-2C11) was used to coat the wells of a 96-well plate and then T cells were stimulated on immobilized anti-CD3 in the presence of 2 μg/mL soluble anti-CD28 (human clone CD28.2; murine clone 37.51). NK cells were stimulated with recombinant IL-2. Proliferation was quantified by analyzing CFSE dilution by flow cytometry (Guava flow cytometer, Millipore, Billerica, MA or Attune NxT flow cytometer, ThermoFisher).
Freshly isolated granulocytes were incubated for 48 h at 37 °C, during which time they spontaneously activate as determined by increased surface expression of CD66b and scatter properties. T cells isolated from the same healthy donor using a pan-T cell isolation kit (Stemcell Technologies) were loaded with CFSE and plated with immobilized anti-CD3 and soluble anti-CD28 in the presence of the aged granulocytes. The cells were co-cultured at several ratios of granulocytes to T cells as indicated in the figure or at a fixed ratio of 4 T cells to 1 granulocyte. […] Granulocytic MDSC (G-MDSC) or granulocytes from cancer patients were isolated from whole blood purchased from Conversant Biologics. G-MDSCs were purified from the PBMC layer of a Ficoll gradient by positive selection for CD66b^+ cells. Granulocytes were purified from the RBC layer of a Ficoll gradient using Hetasep (Stemcell Technologies). […] Cytokines were quantified in the media from T cell co-culture assays using the Cytometric Bead Array kit according to the manufacturer’s instructions (BD Biosciences).

Data set [4] concerns granulocytic MDSCs from a lung cancer patient / healthy donor T cells. Description: T cell proliferation in G-MDSC-conditioned media (lung cancer patient). It counts as cell-based, human. As to the method:
Freshly isolated granulocytes were incubated for 48 h at 37 °C, during which time they spontaneously activate as determined by increased surface expression of CD66b and scatter properties. T cells isolated from the same healthy donor using a pan-T cell isolation kit (Stemcell Technologies) were loaded with CFSE and plated with immobilized anti-CD3 and soluble anti-CD28 in the presence of the aged granulocytes. The cells were co-cultured at several ratios of granulocytes to T cells as indicated in the figure or at a fixed ratio of 4 T cells to 1 granulocyte. Co-cultures were incubated for 3–4 days, at which time the medium was analyzed for L-arginine and L-ornithine by mass spectrometry and T cell proliferation was determined by flow cytometry. Granulocytic MDSC (G-MDSC) or granulocytes from cancer patients were isolated from whole blood purchased from Conversant Biologics. G-MDSCs were purified from the PBMC layer of a Ficoll gradient by positive selection for CD66b^+ cells. Granulocytes were purified from the RBC layer of a Ficoll gradient using Hetasep (Stemcell Technologies). Granulocytes and G-MDSCs were characterized by flow cytometry for CD66b expression. […] Cytokines were quantified in the media from T cell co-culture assays using the Cytometric Bead Array kit according to the manufacturer’s instructions (BD Biosciences).

For data set [5], the system named is granulocytes from a head and neck cancer patient / healthy donor T cells. In words: T cell proliferation in granulocyte-conditioned media (head and neck cancer patient). It counts as cell-based, human. The protocol: Freshly isolated granulocytes were incubated for 48 h at 37 °C, during which time they spontaneously activate as determined by increased surface expression of CD66b and scatter properties. T cells isolated from the same healthy donor using a pan-T cell isolation kit (Stemcell Technologies) were loaded with CFSE and plated with immobilized anti-CD3 and soluble anti-CD28 in the presence of the aged granulocytes. The cells were co-cultured at several ratios of granulocytes to T cells as indicated in the figure or at a fixed ratio of 4 T cells to 1 granulocyte. Co-cultures were incubated for 3–4 days, at which time the medium was analyzed for L-arginine and L-ornithine by mass spectrometry and T cell proliferation was determined by flow cytometry. Granulocytic MDSC (G-MDSC) or granulocytes from cancer patients were isolated from whole blood purchased from Conversant Biologics. G-MDSCs were purified from the PBMC layer of a Ficoll gradient by positive selection for CD66b^+ cells. Granulocytes were purified from the RBC layer of a Ficoll gradient using Hetasep (Stemcell Technologies). Granulocytes and G-MDSCs were characterized by flow cytometry for CD66b expression. Freshly isolated G-MDSC or granulocytes were incubated in co-culture medium containing 100 μM L-arginine for 48 h, at which time the cells were removed and the G-MDSC- or granulocyte-conditioned media were used for incubating healthy donor CFSE-loaded T cells on immobilized anti-CD3/soluble anti-CD28 for 3–4 days. Cytokines were quantified in the media from T cell co-culture assays using the Cytometric Bead Array kit according to the manufacturer’s instructions (BD Biosciences).

The nature of data set [6]: Pharmacokinetic and pharmacodynamic study in LLC tumor-bearing mice. The class given is in vivo, mouse. Conditions: oral dosing, pharmacodynamic effect.
The test system of data set [7] is LLC tumors. In words: LLC syngeneic tumor model. It counts as in vivo, mouse.
The subject of the next data set is B16 tumors. In words: B16 syngeneic tumor model. The class given is in vivo, mouse.
A further data set has as its system 4T1 tumors. Description: 4T1 orthotopic tumor model. It counts as in vivo, mouse.
The test system of data set [8] is LLC tumors. In words: LLC tumors in conditional Arg1 deleted mice. It counts as in vivo, mouse. Conditions: 100 mg/kg every 12 h for 14 days, oral. The protocol: Arg1 floxed mice were crossed to the Tie2-Cre deleter strain (The Jackson Laboratory) as previously described. Experimental mice were generated from crossing Arg1 ^Flox/Flox; Tie2-Cre ^+ males with Arg1 ^Flox/Flox; Tie2-Cre ^− females, with Cre negative littermates serving as wild-type controls. […] LLC cells (10^6 per mouse) were injected s.c. in the flank region. […] Mice were euthanized, and tumors excised and weights recorded. Myeloid deletion of Arg1 was confirmed via western blotting of IL-4-stimulated bone marrow-derived macrophages for all animals.

Data set [9] concerns LLC tumors. Description: LLC tumors in SCID mice. The class given is in vivo, mouse. Conditions: 100 mg/kg twice daily.
For a further data set, the system named is CT26 tumors. Description: CT26 syngeneic tumor model.
For the next data set, the system named is tumor growth. Also on record: method as in PMID 15313928. Particulars: cited from earlier work.
Details of data set [10]: method as in PMID 20219858. Particulars: nor-NOHA injected over a period of 10 weeks; cited from earlier work.
[11] abbreviates: 100 mg/kg twice daily for 23 days, CT26-inoculated mice.
The mark [12] stands for this setting: flow cytometry, study day 14, 100 mg/kg BID.
Setting [13] is: 100 mg/kg twice daily, depleting antibodies.
The mark [14] stands for this setting: flow cytometry, study day 10, 100 mg/kg BID.

The values that follow come from paper PMC5735564 (Journal for Immunotherapy of Cancer, 2017).

Molecules are shown by their SMILES. Entries after “also recorded” stand apart in the source; their conditions may differ. Like-named read-outs stand apart in the source and are kept apart here.

Description for CT26 tumors: Female wild-type C57BL/6 and Balb/c mice (5–6 weeks old) were purchased from Charles River Laboratories (Hollister, CA). Severe combined immune deficient (SCID, B6.CB17-PrkdcSCID/SzJ) and Pmel-1 TCR transgenic (B6.Cg-Thy1a/Cy Tg(TcraTcrb)8Rest/J) mice (5–6 weeks old) were purchased from The Jackson Laboratory (Bar Harbor, ME). All mice were housed and treated in accordance with Institutional Animal Care and Use Committee guidelines. For the 4T1 tumor model, 10^5 cells were injected orthotopically into the mammary fat pad; for all other tumor models, 10^6 cells were injected subcutaneously (s.c.) in the right flank. […] Control groups received vehicle (water) twice daily by gavage. Tumor volume measured by digital caliper (length × width × width/2) and body weight were recorded three times per week. Animals were euthanized when tumors necrotized or volumes reached 2000 mm^3. For the CT26 model, anti-PD-L1 antibody (5 mg/kg, clone 10F.9G2, BioXCell, West Lebanon, NH) was injected intraperitoneally (i.p.) on days 5, 7, 9, 11, 13, and 15. […] Gemcitabine (Selleckchem, Houston, TX) was dosed 50 mg/kg i.p. on days 10 and 16 for the CT26 model, 60 mg/kg i.p. on days 6 and 10 for the LLC model, or 30 mg/kg i.p. on day 5 for the 4T1 model [17, 18]. […] For CD8^+ cell depletion, mice were injected i.p. with anti-CD8 antibody (25 mg/kg, clone 2.43, BioXCell) on days −1, 0, + 5, and +10. For NK cell depletion, mice were injected i.p. with anti-NK1.1 antibody (25 mg/kg, clone PK136, BioXCell) in the LLC and B16 models or with anti-Asialo GM1 sera (20 μL, Wako Chemicals, Richmond, VA) in the CT26 model, per the same schedule as anti-CD8.
Excised tumors were placed on ice in RPMI-1640 medium containing 5% FBS, minced with a razor blade, and dissociated in RPMI-1640 supplemented with mouse tumor dissociation enzymes (Miltenyi Biotec, Bergisch Gladbach, Germany) on a GentleMACS Octo Dissociator With Heat (Miltenyi Biotec) according to the manufacturer’s instructions. Dissociated tumors were strained through 70 μm nylon mesh, washed with cold PBS containing 2% FBS, blocked with anti-CD16/CD32 (Fc block antibody, eBioscience), and stained for cell surface antigens. For B16 and 4T1 tumors, washed dissociated tumor cells were incubated with Dead Cell Removal MicroBeads (Miltenyi Biotec) and applied to a magnetic column prior to staining. For intracellular staining, cells were fixed and permeabilized using buffers purchased from R&D Systems or eBioscience for cytoplasmic or nuclear antigens, respectively. All tumor flow experiments were acquired on an Attune NxT flow cytometer and analyzed with FlowJo software version 10 (Ashland, OR), using fluorescence-minus-one controls for gating and single-stained OneComp eBeads (eBioscience) to set compensation matrices.
Description for Recombinant human Arg2: Recombinant human arginase 2 (Arg2) comprising amino acids 23–254 was purchased from US Biological (Salem, MA). […] Activity was determined by a spectrophotometric assay using the QuantiChrom Urea Assay Kit (BioAssay Systems, Hayward, CA) or by quantification of the generation of ^13C(5)-L-ornithine from ^13C(6)-L-arginine using a SCIEX API4000 mass spectrometer (Applied Biosystems, Foster City, CA). Urea produced or ^13C(5)-L-ornithine peak areas were plotted and fitted to a four-parameter equation using GraphPad Prism software (San Diego, CA) to determine IC50 values.

Take `C[C@H](N)C(=O)N1C[C@H](CCCB(O)O)[C@](N)(C(=O)O)C1` [CB-1158]: the IC50 on Recombinant human Arg2 stood at 296 nM; in data set [1], 32000 nM; in [2], 139000 nM; in data set [3] (Fig. 1d left, read-out: IC50, consumption of L-arginine from the media by granulocytes) it was 411 nM; in [3] (Fig. 1d right, read-out: IC50, granulocyte-mediated suppression of T cell proliferation), 204 nM. Also, in data set [3] (co-culture with activated granulocytes), the “T cell proliferation restored, of the proliferation observed for T cells without granulocytes” value is on record as 90%. The “arginine depletion from the media” value in data set [4] and in data set [5] (granulocyte-conditioned media) was “blocked” each time. The “T cell proliferation restored, of control levels” value in [4] (MDSCs to T cells 1 to 1) was found to be 99%; in data set [5] (granulocyte-conditioned media, granulocytes to T cells 0.5 to 1), 79%. Also, in data set [5] (media from Fig. 1f, Cytometric Bead Array), the “secretion of interferon-γ and granzyme-B into the media” value is given as “restored”. Further, the “amount of L-arginine in plasma and tumors” value in data set [6] is “raised”. Besides, the “clinical observations and body weight” value in the data set “Tolerability in mice” (setting [11]) is listed as “no significant clinical observations or impact on body weight”. The tolerability result in the data set “Tolerability in mice” (setting [11]) and in “Tolerability in mice” (twice-daily oral dosing for at least 40 days) was “well-tolerated” each time. The “tumor growth, single agent” value in the data set on LLC tumors [7] (100 mg/kg twice daily, oral) is recorded as “significantly inhibited”; in the data set with B16 tumors (100 mg/kg twice daily, oral) it was “significantly inhibited”; in the data set on 4T1 tumors (100 mg/kg twice daily, oral) it was “significantly inhibited; also recorded: modest effect”; with CT26 tumors (100 mg/kg twice daily, oral), “significantly inhibited”. Also, the “effect of depletion of CD8+ cells on efficacy” value with LLC tumors [7] (100 mg/kg twice daily, study day 13) was “smaller effect”. Also, the “efficacy after depletion of NK cells” value with LLC tumors [7] (100 mg/kg twice daily, study day 14) is on record as “loss of efficacy”. In the data set on LLC tumors [7] (Luminex, 200 mg/kg twice daily for 14 days), the “inflammatory cytokines in tumors vs vehicle” value was “increases”. The “transcripts of interferon-responsive genes in tumors vs vehicle” value in the data set on LLC tumors [7] (Nanostring, 100 mg/kg twice daily for 13 days) is on record as “increases”. Besides, the “CD8+ T cells in the tumor vs vehicle” value with LLC tumors [7] (setting [12]) was “increase”. For the same molecule, in the data set with LLC tumors [7] (setting [12]), the “CD68+ macrophages in the tumor vs vehicle” value is given as “decrease”. The “efficacy after depletion of either CD8+ cells or NK cells” value in the data set on B16 tumors (setting [13]) and in the data set on CT26 tumors (setting [13]) was “blocked the efficacy” throughout. Further, the “tumor-infiltrating activated CD8+ CD25+ cytotoxic T cells vs vehicle” value was “increase” with B16 tumors (flow cytometry, study day 9, 100 mg/kg BID) and “increase” with CT26 tumors (setting [12]). Further, the “CD3+ T cells in the tumor vs vehicle” value in the data set with 4T1 tumors (setting [14]) was “increase”. In addition, in the data set on 4T1 tumors (setting [14]), the “NK cells in the tumor vs vehicle” value is recorded as “increase”. Besides, the “myeloid cells in the tumor vs vehicle” value with 4T1 tumors (setting [14]) was “decrease”. Further, in the data set with LLC tumors [8], the “tumor growth in Arg flox/flox; Tie2-Cre+ (ARG1ΔM) mice” value was “no further reduction in tumor growth”. The “efficacy in the SCID background” value in the data set with LLC tumors [9] is listed as “abrogated”.

Turning to `Nc1ccn([C@@H]2O[C@H](CO)[C@@H](O)C2(F)F)c(=O)n1` [Gemcitabine, gemcitabine, reference compound], the “CD11b+ myeloid cells in the tumors” value in the data set with CT26 tumors (flow cytometry, study day 14) is reported as “significant decrease”.

Consider `N=C(NO)NCC[C@H](N)C(=O)O` [nor-NOHA], for which the tumor growth entry in the data set on tumor growth (injection of nor-NOHA) is reported as “reduced tumor growth”. The tolerability result (in the data set with tumor growth (multi-day studies in mice); in [10]) was “well-tolerated” throughout.
